Source: ChEMBL document CHEMBL1201862, “PubChem BioAssay data set” (2004)
Structures can show the parent of a compound that is named as a salt.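 Protocol summary: plate cells (96-well), add compound at 5 concentrations, incubate 48 h, interpolate endpoints linearly. Abbreviation: GI50, concentration required for 50% inhibition of growth.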 The source made the active and inactive calls. Cut-off read from the data, not from the text of the source: active = GI50 up to about 1.1 µM and inactive = higher.

Assays:
Assay in all cases: DTP human tumour cell line panel, 48 h
A498 = tested on: A498
A549 = tested on: A549
BT-549 = tested on: BT-549
DLD-1 = tested on: DLD-1
HOP-18 = tested on: HOP-18
HOP-92 = tested on: HOP-92
K562 = tested on: K562
KM-20L2 = tested on: KM-20L2
LXFL 529 = tested on: LXFL 529
M19-MEL = tested on: M19-MEL
MDA-MB-231 = tested on: MDA-MB-231
MOLT-4 = tested on: MOLT-4
Malme-3M = tested on: Malme-3M
NCI-H226 = tested on: NCI-H226
NCI-H522 = tested on: NCI-H522
PC-3 = tested on: PC-3
SK-OV-3 = tested on: SK-OV-3
SN12C = tested on: SN12C
U-251 = tested on: U-251
XF498 = tested on: XF498

Measured: GI50

CCC1CN2CCc3cc(OC)c(OC)cc3C2CC1CC1c2cc(OC)c(OC)cc2CCN1C(=O)C(Cc1c[nH]c2ccccc12)NC(=O)OC(C)(C)C (centres undefined)
inactive: A498 6.65 µM | A549 3.61 µM | BT-549 3.36 µM | DLD-1 8.39 µM | HOP-18 4.13 µM | HOP-92 2.62 µM | K562 2.7 µM | KM-20L2 1.87 µM | LXFL 529 3.94 µM | M19-MEL 1.69 µM | MDA-MB-231 2.16 µM | MOLT-4 2.47 µM | Malme-3M 1.74 µM | NCI-H226 13.4 µM | NCI-H522 2.28 µM | PC-3 3.12 µM | SK-OV-3 4.8 µM | SN12C 3.26 µM | U-251 2.57 µM | XF498 1.78 µM

CNNCc1ccc(C(=O)NC(C)C)cc1 [PROCARBAZINE HYDROCHLORIDE]
inactive: A498 > 500 µM | A549 335 µM | BT-549 > 500 µM | DLD-1 > 500 µM | HOP-18 138 µM | HOP-92 369 µM | K562 410 µM | KM-20L2 380 µM | LXFL 529 > 500 µM | M19-MEL > 500 µM | MDA-MB-231 > 500 µM | MOLT-4 426 µM | Malme-3M > 457 µM | NCI-H226 > 381 µM | NCI-H522 > 500 µM | PC-3 > 500 µM | SK-OV-3 > 493 µM | SN12C > 500 µM | XF498 > 500 µM
